In PubChem BioAssay (NCI):
Where “and” joins values, the source holds several entries; their conditions need not be identical. Equal values may be shown once.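 These data come from cells grown in 96-well plates and exposed to compound for 48 hours at five concentrations. GI50 = concentration required for 50% inhibition of growth. Definition used: TGI = concentration required for complete inhibition of growth.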

Legend:
Experiment in all cases: growth of human tumour cells (NCI), 48 h
KM20L2 colon = system: KM20L2 colon
SNB-78 CNS = system: SNB-78 CNS
M19-MEL melanoma = system: M19-MEL melanoma
HCC-2998 colon = system: HCC-2998 colon
ACHN renal = system: ACHN renal
IGROV1 ovarian = system: IGROV1 ovarian
LXFL 529 NSCLC = system: LXFL 529 NSCLC
HOP-18 NSCLC = system: HOP-18 NSCLC
UACC-62 melanoma = system: UACC-62 melanoma
DMS 273 small cell lung = system: DMS 273 small cell lung
DLD-1 colon = system: DLD-1 colon
HOP-92 NSCLC = system: HOP-92 NSCLC
MDA-N = system: MDA-N

Structure (SMILES) | TGI (KM20L2 colon) | TGI (SNB-78 CNS) [µM] | TGI (M19-MEL melanoma) | TGI (HCC-2998 colon) | TGI (ACHN renal) [µM] | TGI (IGROV1 ovarian) | TGI (LXFL 529 NSCLC) | TGI (HOP-18 NSCLC) | TGI (UACC-62 melanoma) | TGI (DMS 273 small cell lung) | TGI (DLD-1 colon) [µM] | TGI (HOP-92 NSCLC) | TGI (MDA-N) [µM] | GI50 (HOP-92 NSCLC) [µM] | GI50 (M19-MEL melanoma) | GI50 (DMS 273 small cell lung) | GI50 (ACHN renal)
CCOC(=O)C(C)(C)Oc1ccc2c(=O)cc(-c3ccccc3)oc2c1 | 52.1 µM | 71.8 | 41.5 µM | > 100 µM | > 100 | 78.4 µM | 35.7 µM | 54.3 µM | 33.7 µM | – | – | – | – | – | – | – | –
CC1=CC(O)C(O)C2(C)C1CC1OC(=O)C(O)C3C(C)C(O)C4(O)OCC13C42 (centres undefined) | 233 µM | 154 | 394 µM | 126 µM | – | 224 µM | – | > 625 µM | 341 µM | > 567 µM | > 625 | 14.6 µM | – | – | – | – | –
COc1cccc(NC(=O)CSc2nnc(-c3ccc(N=Cc4ccc(Cl)cc4)cc3)o2)c1 | 30.6 µM | > 100 | 60.8 µM | – | 30.3 | – | 50.2 µM | > 100 µM | 35.1 µM | – | – | – | – | – | – | – | –
NC(Cc1cc(I)c(O)c(I)c1)C(=O)O (centres undefined) | > 500 µM | > 500 | > 393 µM | > 500 µM | – | > 500 µM | – | > 500 µM | > 357 µM | > 322 µM | > 500 | > 107 µM | – | – | – | – | –
CCCCc1c2c(nc3c1CCc1cc4c(nc1-3)-c1nc3c(c(CCCC)c1CC4)CCC/C3=C\c1ccccc1)/C(=C/c1ccccc1)CCC2 | > 100 µM | > 100 | > 100 µM | > 100 µM | – | > 100 µM | > 100 µM | – | > 100 µM | > 100 µM | > 100 | > 100 µM | – | – | – | – | –
COc1cc(C2C3=C(CCC3=O)Oc3cc4c(cc32)OCO4)cc(OC)c1OC (centres undefined) | 0.664 µM | > 100 | > 100 µM | – | 62.3 | > 100 µM | – | > 100 µM | > 100 µM | > 100 µM | – | 6.47 µM | – | – | – | – | –
Cc1csc2c1C(=O)c1ccsc1C2=O | 17.6 µM | 16.5 | 0.339 µM | 14.6 µM | 10.7 | 11.8 µM | 13.3 µM | 3.73 µM | 3.07 µM | 4.45 µM | 10.6 | 12.5 µM | 0.889 | – | – | – | –
O=c1[nH]c(=O)n(C2OC(COP(=O)(O)OP(=O)(O)O)C(O)C2O)cc1F (centres undefined) | > 50 µM | > 50 | > 50 µM | > 50 µM | > 44.7 | > 50 µM | > 50 µM | > 50 µM | > 42.6 µM | > 50 µM | > 50 | > 50 µM | – | – | – | – | –
CN1CCn2c(Br)ccc2C1=O | > 100 µM | > 100 | > 100 µM | > 100 µM | > 100 | > 100 µM | > 100 µM | – | > 100 µM | > 100 µM | – | – | – | – | – | – | –
C/C(=N\NC(N)=O)C(CN1CCCCC1)C(c1ccccc1)c1c(O)c2ccccc2oc1=O (centres undefined) | > 100 µM | > 100 | > 100 µM | > 100 µM | > 100 | > 100 µM | > 100 µM | > 100 µM | > 100 µM | > 100 µM | > 100 | > 100 µM | – | 21.6 | – | – | –
CC1(O)C=CC2CCC1C2O (centres undefined) | > 100 µM | > 100 | > 100 µM | – | > 100 | > 100 µM | > 100 µM | > 100 µM | > 100 µM | > 100 µM | > 100 | – | – | – | – | – | –
Cc1ccc(C(=O)N(C(C)C)C(C)C)cc1N=NN(C)C | > 100 µM | > 100 | > 100 µM | > 100 µM | > 100 | > 100 µM | > 100 µM | – | > 100 µM | > 100 µM | > 100 | > 100 µM | > 100 | – | – | – | –
CCOc1ccc2[nH]c3c(C)c4cc[n+](C)cc4c(C)c3c2c1 | 47.8 µM and > 96.8 µM | > 100 | 2.27 µM and 4.23 µM | 10.6 µM and 16.2 µM | > 100 | 32 µM and > 44.7 µM | 1.54 µM and 3.6 µM | 33.6 µM and 49.2 µM | 5.48 µM and 12.3 µM | 6.33 µM and 13.8 µM | > 100 | 13.1 µM and 25.3 µM | – | – | 0.557 µM and 1.5 µM | 0.651 µM and 1.33 µM | 6.04 µM and 17.5 µM
